What was measured:
5-HT2c binding site = target: T1, 5-HT2c binding site (Rattus norvegicus, UniProt P08909); assay: [3H]-mesulergine binding; conditions: displacement of [3H]-mesulergine (1 nM) in rat prefrontal cortex membranes; test drugs 10^-6 M; 30 nM spiperone present; 37° C., 30 minutes
T1 construct: ability to displace [^3H]-mesulergine in the rat prefrontal cortex; from tissue; host or cells: rat prefrontal cortex membrane suspension
T1 sequence (P08909 33-460): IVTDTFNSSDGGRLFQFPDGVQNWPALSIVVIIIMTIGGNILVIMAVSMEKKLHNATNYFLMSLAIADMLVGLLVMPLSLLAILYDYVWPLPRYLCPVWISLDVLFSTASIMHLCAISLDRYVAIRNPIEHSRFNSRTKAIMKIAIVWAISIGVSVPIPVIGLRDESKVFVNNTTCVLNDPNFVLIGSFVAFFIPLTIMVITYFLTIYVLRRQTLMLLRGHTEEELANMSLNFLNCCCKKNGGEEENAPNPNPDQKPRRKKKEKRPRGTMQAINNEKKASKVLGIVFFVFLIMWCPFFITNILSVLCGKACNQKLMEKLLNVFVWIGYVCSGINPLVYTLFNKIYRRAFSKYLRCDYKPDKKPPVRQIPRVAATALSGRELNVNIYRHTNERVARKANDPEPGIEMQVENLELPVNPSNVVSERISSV
Method: [^3H]-mesulergine Binding
The affinity of the test drugs for the 5-HT2c binding site can be determined by assessing their ability to displace [^3H]-mesulergine in the rat prefrontal cortex. The method employed was similar to that of Pazos et al, 1984.
The membrane suspension ([…]) was incubated with [^3H]-mesulergine (1 nM) in Tris HCl buffer containing CaCl2 4 mM and ascorbic acid 0.1% (pH 7.4) at 37° C. for 30 minutes. Non-specific binding was measured in the presence of mianserin (1 μM). 30 nM spiperone was used to prevent binding to 5-HT2A sites. Test drugs (10^−6 M) were added in a volume of 100 μl. The total assay volume was 1000 μl. Incubation was stopped by rapid filtration using a Brandel cell harvester and radioactivity measured by scintillation counting.
The IC50 values were determined using a four parameter logistic program (DeLean 1978) and the pKi (the negative logarithm of the inhibition constant) calculated from the Cheng Prusoff equation where: [formula]
C=concentration of [^3H]-mesulergine
Kd=affinity of mesulergine for 5-HT2c binding site.

| Inhibition (%) (5-HT2c binding site) | melting point | SMILES |
| --- | --- | --- |
| 74% | – | O=C(Nc1cccc(-c2cccnc2)c1)c1cccc2c1Cc1ccccc1-2 [(2), N-(3-(pyridin-3-yl)phenyl)-9H-fluorene-1-carboxamide] |
| 92% | – | O=C(Nc1cccc(-c2cncnc2)c1)c1cccc2c1Cc1ccccc1-2 [(3), N-(3-(pyrimidin-5-yl)phenyl)-9H-fluorene-1-carboxamide] |
| 64% | – | O=C(Nc1cccc(-c2ccnnc2)c1)c1cccc2c1Cc1ccccc1-2 [(4), N-(3-(pyridazin-4-yl)phenyl)-9H-fluorene-1-carboxamide] |
| – | 131 to 134 °C | O=C(Nc1cccc(-n2ccnc2)c1)c1csc(-c2ccccc2)n1 [Example 25, N-(3-(imidazol-1-yl)phenyl)-2-phenylthiazole-4-carboxamide] |

| SMILES | Inhibition (%) (5-HT2c binding site) | melting point |
| --- | --- | --- |
| Cn1ccc2cc(NC(=O)Nc3cccnc3)ccc21 [(1), N-(1-Methyl-1H-indol-5-yl)-N′-(3-pyridyl)urea, reference compound] | 21% | – |
